According to patent US12285464B2, “Therapeutic targets involved in the progression of nonalcoholic steatohepatitis (NASH)” (The Trustees of Columbia University in the City of New York, priority 2016, dated 2025):
Entries after “also recorded” stand apart in the source; their conditions may differ.

Assays:
[1] = test system: primary murine hepatic stellate cells (HSCs); test: Conditioned medium transfer from silenced AML12 hepatocytes to primary hepatic stellate cells; type: cell-based, mouse; conditions: CM from TAZ-silenced vs control hepatocytes, 72 h
Source text: To explore the possibility that TAZ-induced Ihh is secreted by hepatocytes and activates HSCs, an in vitro model using AML12 cells, a non-cancerous mouse hepatocyte cell line was utilized (Dumenco et al., 1995), along with primary murine HSCs. Consistent with the in vivo data, siTaz treatment of AML12 hepatocytes lowered cellular Ihh mRNA in the cells and Ihh protein in both the cells and media (FIGS. 8A-C). In the next experiments, conditioned medium (CM) from control or Taz-silenced AML12 cells was utilized, as well as medium not exposed to cells (non-CM), to primary murine hepatic stellate cells (HSCs). […] Finally, to make a more direct link between TAZ-induced Ihh in hepatocytes and activation of HSCs, Ihh was restored in siTaz-treated hepatocytes by Ihh transfection and then analyzed to determine whether this lessened the suppressive effect of CM from these cells on the expression of the fibrosis-related genes in HSCs. […]
(§1) AML12 mouse hepatocytes were purchased from ATCC (CRL-2254) and cultured in DMEM/F12 medium (Lifetechnologies, #11320) with 10% FBS (Gibco, #16140-071). […] For quantification of Ihh, hepatocyte conditioned medium was concentrated 10-fold by centrifugal filters (Millipore, Ultracel) and analyzed by an ELISA kit (LifeSpan Biosciences, F7953).

Taz [2] = test: siTaz treatment of AML12 hepatocytes (Ihh mRNA, immunoblot, ELISA); type: cell-based, mouse
Source text: To explore the possibility that TAZ-induced Ihh is secreted by hepatocytes and activates HSCs, an in vitro model using AML12 cells, a non-cancerous mouse hepatocyte cell line was utilized (Dumenco et al., 1995), along with primary murine HSCs. Consistent with the in vivo data, siTaz treatment of AML12 hepatocytes lowered cellular Ihh mRNA in the cells and Ihh protein in both the cells and media (FIGS. 8A-C). In the next experiments, conditioned medium (CM) from control or Taz-silenced AML12 cells was utilized, as well as medium not exposed to cells (non-CM), to primary murine hepatic stellate cells (HSCs). […] Most importantly, CM from TAZ-silenced hepatocytes lowered the levels these mRNAs and protein compared to CM from shCon-treated hepatocytes (FIG. 8D). […] Finally, to make a more direct link between TAZ-induced Ihh in hepatocytes and activation of HSCs, Ihh was restored in siTaz-treated hepatocytes by Ihh transfection and then analyzed to determine whether this lessened the suppressive effect of CM from these cells on the expression of the fibrosis-related genes in HSCs. Transfection of TAZ-silenced hepatocytes with Ihh led to a level of Ihh in the CM that was similar to that in the CM of control hepatocytes (FIG. 8F—compare 1st and 4th bars). As before, the CM of TAZ-silenced hepatocytes suppressed Opn, Timp1 and Col1a1 mRNA in HSCs (FIG. 8G—compare 2nd and 4th bars), and the present results illustrate that restoration of Ihh in these TAZ-silenced cells rescued CM-induced HSC gene expression (FIG. 8G—compare 4th and 5th bars).
as §1, with “#16140-071). Hepatic stellate cells (HSCs) were isolated from 5-6 mo/o BALB/C mice as described previously (Mederacke et al., 2015).” for “#16140-071).”, “F7953). […]” for “F7953).”

PCSK9 = conditions: modified stable siRNA, clinical trials; cited from earlier work
TAZ [3] = test: TAZ silencing with AAV8-shTaz in FPC-fed hyperphagic Mc4r-/- mice, 16 weeks; type: in vivo; conditions: FPC diet 16 wks
Protocol: (§2) To study TAZ function in NASH development, FPC mice were treated with AAV8-shTaz vs. AAV8-control RNA. […] Mouse body weight, liver:body weight ratio, fasting blood glucose, plasma insulin, and plasma cholesterol were similar in the Taz shRNA and control groups.
(§3) Male wild-type mice C57BL/6J (#000664, 8-10 weeks/old) and MC4R-negative loxTB Mc4r mice (#006414, 6 weeks/old), referred to here as Mc4r^-/- mice, were obtained from Jackson Laboratory (Bar Harbor, ME) and were allowed to adapt to housing in the Columbia University Medical Center Institute of Comparative Medicine for 1 week prior to random assignment to experimental cohorts. The mice were then fed the following diets for the times indicated in the figure legends: (a) chow diet (Picolab rodent diet 20, #5053); (b) “fast-food” (FF). diet (TestDiet 1810060): high-fat diet with drinking water containing 42 g/L glucose and fructose (55%/45%, w/w); or (c) fructose-palmitate-cholesterol (“FPC”) diet (Teklad, TD.140154): similar to FF diet but with 1.25% added cholesterol and with palmitic acid, anhydrous milk fat, and Primex as the sources of fat and with a ˜60% decrease in vitamin E and a ˜35% decrease in choline compared with typical mouse diets. The detailed composition of these diets appear in Tables 1 and 2. For several experiments, groups of mice were placed on a methionine-choline-deficient diet (Teklad, TD. 90262) for 8 weeks, as described (Dixon et al., 2012). Adeno-associated virus (2×10^11 genome copy/mouse) was delivered by tail vein injection either 1 week prior to diet initiation or after 8 weeks of the FPC diet. Animals were housed in standard cages at 22° C. in a 12-12-h light-dark cycle. All animal experiments were performed in accordance with institutional guidelines and regulations and approved by the Institutional Animal Care and Use Committee at Columbia University.
Formalin-fixed, paraffin-embedded liver sections were stained with hematoxylin and eosin (H&E) and evaluated for severity of NAFLD by a trained hepatopathologist blinded to the clinical diagnosis, αaccording to criteria described by Brunt et al. (Kleiner et al., 2005; Liang et al., 2014). Liver fibrosis was assessed by Picrosirius (Sirius) red (Polysciences, #24901) or by Masson's trichrome staining (Sigma, HT15), with aniline blue-positive areas quantified as a measure of collagen content in the trichrome-stained. sections. TUNEL staining was conducted using a kit from Roche (#12156792910). For immunofluorescence microscsopy, paraffin sections were rehydrated, subjected to antigen retrieval by placing in a pressure cooker for 10 mins in Target Retrieval Solution (Dako, S1699), and then blocked with serum. Sections were labeled with primary antibodies overnight, using a 1:150 dilution except for α-SMA and 4-HNE (1:200) and TAZ (1:400), followed by incubation with a fluorophore-conjugated secondary antibody for 1 h. The stained sections were mounted with DAPI-containing mounting medium (Life Technologies, P36935) and then viewed on an Olympus IX 70 fluorescence microscope. For filipin (Sigma, F9765) staining, frozen sections were fixed in 4% paraformaldehyde for 1 h at room temperature, then rinsed using glycine/PBS and stained 0.25 mg/ml filipin 2 h at room temperature. Fluorescence microscopic images were analyzed using ImageJ software. For immunohistochemistry, the deparaffinization, rehydration, and antigen retrieval processes were the same as with immunofluorescence staining. The slides were treated with 3% hydrogen peroxide for 10 min and then blocked with Serum-Free Protein Block (Dako, X0909) for 30 min. Sections were incubated with OPN, F4/80, or α-SMA primary antibody (1:100) overnight and then developed using DAB substrate kit (Cell Signaling, #8059) for OPN and F4/80,FITC-labeled anti-HRP secondary antibody for α-SMA.
Hydroxyproline liver content was measured as previously described (Bataller et al., 2003; Seki et al., 2009). […]

TAZ [4] = test: TAZ silencing after development of steatosis: AAV8-shTaz at week 8 of 16 weeks of FPC diet; type: in vivo, mice; conditions: shTaz at week 8, read at 16 weeks of FPC diet
Source text: To investigate the role of TAZ specifically in steatosis-to-NASH conversion, mice were first fed the FPC diet for 8 weeks and then injected with AA8-shTaz or control virus, followed by an additional 8 weeks on the diet. Note that 8 weeks of FPC diet caused steatosis but no appreciable inflammation or fibrosis (FIG. 6A).
as §3

TAZ [5] = test: shTaz in the MCD (methionine/choline-deficient) diet model; type: in vivo, mice
Source text: Thus, in separate models of NASH, hepatic TAZ silencing improved key liver parameters related to inflammation, fibrosis, and cell death without affecting metabolic parameters or steatosis.
as §3

TAZ [6] = test: TAZ silencing with AAV8-shTaz in FPC-fed C57BL/6J mice, FPC diet for 16 weeks; type: in vivo; conditions: FPC diet 16 weeks
Protocol: as §2
The following antibodies were used for immunoblots: GAPDH (#3683), β-actin (#5125), CHOP (#5554), TAZ (#8418), p-eIF2α (#3398), eIF2α (#5324), Lamin A/C (#4777) from Cell Signaling; p-TAZ (sc-17610) and Col1a1 (sc-8784) from Santa Cruz; Ihh (ab39634) from Abcam; and Timp1 (AF980) from R & D. The following antibodies were using for immunostaining of liver: α-SMA (ACTA2) (C6198, F3777) and TAZ (HPA007415) from Sigma; F4/80 (MCA497GA) from AbD Serotec; Ly6g (#127601) from Biolegend; Ly6b (MCA771G) from Bio-Rad; OPN (AF808) from R & D; 4-hydroxynonenal (4-HNE) (AB5605) from Millipore; and HNF4α (sc-6556) from. Santa Cruz. The following plasma assay kits were used in this study: insulin ELISA (#90080) from. Crystal Chem; MCP1 ELISA (#88-7391-22) from eBiosciences; cholesterol (#439-17501) and triglyceride (#465-09791, #461-09891) from Wako; and ALT (#006A-CR) and AST (#004A-CR) from BQ Kits, Inc. AAV8-shRNA targeting murine Taz was made by annealing complementary oligonucleotides (5′-CACCAcagcegaatctcgcaatgaatCTCGAGATTCATTGCGAG ATTCGGCTG-3′) (SEQ ID NO:1), which were then ligated into the pAAV-RSV-GFP-H1 vector, as described previously (Lisowski et al., 2014). The resultant constructs were amplified by the Salk Institute Gene Transfer, Targeting, and Therapeutics Core.
as §3
Fasting blood glucose was measured using a glucose meter (One Touch Ultra, Life-scan) in mice that were fasted for 4-5 h, with free access to water. Complete blood counts were obtained with the FORCYTE Veterinary Hematology Analyzer (Oxford Science, Inc.). Total plasma triglyceride and cholesterol were assayed using a commercially available kit from Wako. For insulin, MCP1, AST, ALT, TC, TG are measured following kit instruction by using plasma.
Formalin-fixed, paraffin-embedded liver sections were stained with hematoxylin and eosin (H&E) and evaluated for severity of NAFLD by a trained hepatopathologist blinded to the clinical diagnosis, αaccording to criteria described by Brunt et al. (Kleiner et al., 2005; Liang et al., 2014). […]

## siTaz: siRNA against mouse Taz purchased from IDT; target sequence ACAUGGACGAGAUGGAUACAGGUGA (sense ACAUGGACGAGAUGGAUACAGGUGA; purchased from IDT, chemistry not given here; the letters are possibly those of the target site)
[1]
  Opn, Timp1 and Col1a1 mRNAs and protein in HSCs: lowered
Taz [2]
  cellular Ihh mRNA: lowered
Taz [2]; ELISA
  Ihh protein in the media: lowered
Taz [2]; immunoblot
  Ihh protein in the cells: lowered

## Inclisiran
PCSK9
  toxicity profile: very low toxicity profiles

## 5′-CACCAcagcegaatctcgcaatgaatCTCGAGATTCATTGCGAG ATTCGGCTG-3′ (DNA CACCACAGCCGAATCTCGCAATGAATCTCGAGATTCATTGCGAGATTCGGCTG; expressed or natural sequence) [AAV8-shTaz, AAV8-shRNA targeting murine Taz; annealed oligonucleotides ligated into the pAAV-RSV-GFP-H1 vector]
TAZ [3]
  hydroxyproline content of liver: lower; also recorded: reduced
  liver inflammation (hepatic inflammatory cells): decreased; also recorded: reduced
  plasma ALT: reduced
TAZ [3]; liver
  staining for Sirius red: decreased staining
  staining for aniline blue: decreased staining
  staining for α-SMA: decreased staining
TAZ [4]
  F4/80+ macrophages: marked reductions
  fibrosis endpoints (aniline blue- and Sirius red-positive areas): marked reductions; also recorded: reduced
  inflammatory cells: marked reductions; also recorded: reduced
  inflammatory- and fibrosis-related genes (Tnfa, Mcp1, Tgfb1, Acta2 mRNA): marked reductions; also recorded: reduced
  plasma ALT: marked reductions; also recorded: reduced
  α-SMA+ cells: marked reductions
TAZ [5]
  hepatic fibrosis: decreased
  hepatic inflammation: decreased
  macrophages in the liver: reduced
  steatosis: without impacting
  α-SMA+ cells in the liver: reduced
TAZ [5]; liver
  inflammatory and fibrotic gene expression: reduced
TAZ [6]
  4-HNE+ liver cells: decrease
  TUNEL+ liver cells: decrease
  inflammatory cell infiltration in liver sections: marked reductions
  plasma ALT: decreased
  steatosis: not affected
TAZ [6]; immunoblot
  hepatic Ihh protein: suppressed
TAZ [6]; liver
  F4/80+ macrophages: decreases
  expression of mRNAs related to fibrosis (Acta2, Timp1, Des, Col1a1, Col1a2, Col3a1, Vim): robust reduction
  expression of mRNAs related to hepatic inflammation (Tnfa, Mcp1, F4/80 (Adgre1)): robust reduction
  α-SMA+ cells: decreases
TAZ [6]; vs AAV8-control RNA
  silencing of TAZ in liver (immunoblot): robust silencing
TAZ [6]; vs control group
  Mouse body weight: similar
  fasting blood glucose: similar
  liver:body weight ratio: similar
  plasma cholesterol: similar
  plasma insulin: similar
TAZ [6]; aniline blue, Sirius red
  fibrosis endpoints in liver sections: marked reductions
